# From patent US6569638B1, “Method for screening compounds for the treatment of neoplasia” (Cell Pathways, Inc, priority 2000, dated 2003)
# Assays:
# [1] = system: JNK1 in SW480 colon cancer cells; test: JNK1 immunoprecipitation in vitro kinase assay with GST-c-Jun(1-79); format: cell-based, human; conditions: SW480 cells
# Procedure: The cells were lysed, JNK1 immunoprecipitated with an anti-JNK1 antibody, and the immunoprecipitate (“IP”) assayed for in vitro kinase activity with GST-c-Jun(1-79) as the substrate. The experiments were repeated three times with similar results. Fold activation was measured using a Phosphor Imager.
# FIG. 1B: SW480 cells were treated with Compound A (1 μM) for the indicated time periods and in vitro JNK1 kinase activity was determined as described above.
# FIG. 2A SW480 cells were treated with either DMSO (−) or Compound A, 0.1 μM; dbcGMP, 500 μM; YC-1, 50 μM; MY-5445, 50 μM; dipyridamole, 10 μM or dbcAMP, 500 μM for one hour. The cells were lysed, JNK1 immunoprecipitated, and the IP assayed for in vitro kinase activity as described in FIG. 1A.
# FIG. 2B SW480 cells were pre-treated with either DMSO, KT5720 (2 μM) or Rp-8-pCPT-cGMPS (2 μM) for 2 hours and then treated with Compound B (0, 1 or 10 μM) for one hour. The cells were lysed and assayed for JNK1 activation in the IP as described above.
# These concentrations were chosen since they provided optimal induction of apoptosis. Endogenous JNK1 was immunoprecipitated with anti-JNK1 antibody and in vitro kinase assays were performed with GST-c-Jun(1-79) as the substrate. […]
# However, the precise role of PKG in signal transduction pathways is not known. […] As a control, KT5720 was used as a protein kinase A (“PKA”)-specific inhibitor. SW480 cells were treated with either DMSO, KT5720 (2 μM) or Rp-8-pCPT-cGMPS (2 μM) for 2 hours and then treated with either DMSO or Compound B (1 or 10 μM) for one hour. Cell extracts were collected and assayed for JNK1 activation.
# [2] = target: PDE 5 (i.e., peak A) (Homo sapiens, UniProt O76074); test: Competitive binding with cGMP; conditions: PDE 5 (peak A)
# [3] = target: T1, GST-cGB-PDE5 fusion protein (cGMP binding sites of human PDE5A) (Homo sapiens, UniProt O76074); test: cGMP binding assay (3H-cGMP competition); conditions: 3H-cGMP 2 μM, 22° C., 1 hour
# T1 construct: made in house; host or cells: E. coli BL21 (DE3)
# [4] = system: MEKK1 in SW480 cells; test: MEKK1 cleavage and activation (Western blot, autophosphorylation); format: cell-based, human
# Procedure: FIG. 3B: SW480 cells were treated with Compound A (1 μM) and collected after either 1 or 2 days and the cell lysates were assayed for MEKK1 cleavage by Western blotting with anti-MEKK1 antibody. Minus (−) indicates DMSO treated control cells.
# We then examined the effect of a SAAND on MEKK1, a protein kinase immediately upstream of SEK1. […] Previous studies indicate that MEKK1 is cleaved during activation by caspases (19). […] It is not clear, however, whether cGMP-activated PKG directly activates MEKK1 or whether the cleavage and activation of MEKK1 is an indirect effect of the process of apoptosis.
# [5] = system: SEK1 in SW480 cells; test: SEK1 phosphorylation by Western blot (anti-phospho-SEK1 Thr223); format: cell-based, human; conditions: Compound A 1 μM
# Procedure: FIG. 3A: SW480 cells were treated with Compound A (1 μM), collected at the indicated time points, and cell lysates assayed for SEK1 activation by Western blotting with anti-phospho-SEK1 (Thr223) antibody. Fold increase in phosphorylation was measured by densitometry. The experiment was repeated three times with similar results.
# To further characterize the signal transduction pathway involved in the above-described JNK1 activation, we tested whether SEK1, the protein kinase immediately upstream of JNK1, was also activated by a SAAND. Activation of SEK1 occurs through phosphorylation of two residues of this protein, Ser219 and Thr223, by the protein kinase MEKK1. SW480 cells were treated with Compound A (1 μM) for various times, up to 6 hours, and extracts were analyzed by Western blot analysis using a phospho-Thr223-specific SEK1 antibody. The treatment with Compound A induced increased phosphorylation of SEK1, within 15-30 minutes, without changing the total cellular level of the endogenous SEK1 protein (see, FIG. 3A). By 1 hour there was a 9-fold induction, and this effect persisted for at least 6 hours (FIG. 3A).
# [6] = system: PARP in SW480 cells; test: PARP cleavage by Western blot; format: cell-based, human; conditions: SW480 cells, Compound A 1 μM, 2 days
# Procedure: SW480 cells were pre-treated with either DMSO (−) or Rp-8-pCPT-cGMPS (2 μM) for 2 hours and then treated with either DMSO (−) or Compound A (1 μM). Both the floating and attached cells were collected after 2 days, and the cell lysates were assayed for PARP cleavage by Western blotting with anti-PARP antibody. Fold increase in PARP cleavage was measured by densitometry of the 85 kD fragment.
# Finally, we investigated whether activation of the PKG pathway is required for the induction of apoptosis by SAANDs. SW480 cells were treated with either DMSO or the PKG inhibitor Rp-8-pCPT-cGMPS (2 μM) for 2 hours and then the cells were treated with either DMSO or Compound A (1 μM) for 2 days. Both the floating and attached cells were collected, and the cell lysates were assayed for poly (ADP-ribose) polymerase (PARP) cleavage by Western blotting with an anti-PARP antibody. PARP is a 116 kD nuclear enzyme that converts NAD to nicotinamide and protein-linked ADP-ribose polymers, which are important for DNA repair and genomic maintenance. In cells that are undergoing apoptosis the 116 kD PARP protein is cleaved by caspase-3 into 85 and 25 kD fragments, thus resulting in loss of normal PARP function. This inactivation of PARP apparently prevents depletion of cellular levels of NAD and ATP, which are thought to be required for later events in apoptosis.
# [7] = system: caspase-3 in SW480 cells; test: Caspase-3 activity with Ac-DEVD-AFC substrate; format: cell-based, human; conditions: 24 hours, sulindac sulfide 200 μM, exisulind 600 μM, Compound A 1 μM, Compound B 10 μM
# Procedure: The cells were lysed and the extracts assayed for caspase-3 activity using Ac-DEVD-AFC as the substrate, in the presence or absence of the caspase-3 inhibitor Ac-DEVD-CHO. Caspase-3 activity was calculated by subtracting the AFC fluorescence (excitation; 400 nm, emission; 505 nm) in the presence of Ac-DEVD-CHO from the AFC fluorescence in the absence of Ac-DEVD-CHO.
# Protein extracts were then prepared and caspase-3 activity was measured with Ac-DEVD-AFC as the substrate, in the presence or absence of the caspase-3 inhibitor Ac-DEVD-CHO. […] Similar findings were obtained with HCT116 and HT29 cells (data not shown).
# [8] = system: PDE peak B; test: Competitive binding with cGMP
smiles,measurement,setting,value
"COc1cc(/C=C2/C(C)=C(CC(=O)NCc3ccccc3)c3cc(F)ccc32)cc(OC)c1OC [Compound A, (Z)-5-fluoro-2-methyl-(3,4,5-trimethyl-oxybenzylidene)-3-(N-benzyl)-indenylacetamide]",duration of sustained JNK1 activation,"[1]; Compound A 1 μM, time course",at least 24 hours
same,JNK1 activation,"[1]; one hour, sulindac sulfide 50-500 μM, exisulind 100-600 μM, Compound A 0.1-5 μM, Compound B 1-50 μM",activated JNK1
same,competitive binding with cGMP,[2],competitively (with cGMP) bind
same,competition with cGMP for the cGMP binding sites of GST-cGB-PDE5,[3],None of the PDE5 inhibitors showed any competition with cGMP
same,MEKK1 activity (autophosphorylation and phosphorylation of GST-SEK1),[4],strong and transient activation of MEKK1 activity
same,MEKK1 cleavage,"[4]; Compound A 1 μM, one or two days",cleavage of this protein
same,persistence of SEK1 phosphorylation,[5],at least 6 hours
same,time to increased phosphorylation of SEK1,[5],15 to 30 min
same,induction of SEK1 phosphorylation,[5]; by 1 hour,9 fold
same,PARP cleavage,[6],induced PARP cleavage
same,caspase-3 activation,[7],led to activation of caspase-3
same,competitive binding with cGMP,[8],competitively (with cGMP) binds
